Measured values from US10670605B2, “Cysteine reactive probes and uses thereof” (The Scripps Research Institute, priority 2015, dated 2020).

Key:
Assay in all cases: Competitive isoTOP-ABPP in situ (fragment-treated cells)
Assay type in all cases: cell-based
Settings in all cases: 200 μM, insitu
[1] = biological target: cysteines in MDA-MB-231 and Ramos cells (Homo sapiens, UniProt Q02252)
[2] = biological target: T1, cysteines in MDA-MB-231 and Ramos cells (Homo sapiens, UniProt Q9BRA2)
T1 sequence (Q9BRA2 1-123): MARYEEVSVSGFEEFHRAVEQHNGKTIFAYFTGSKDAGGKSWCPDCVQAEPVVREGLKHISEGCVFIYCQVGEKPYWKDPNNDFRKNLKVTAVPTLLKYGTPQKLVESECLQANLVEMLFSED

[3] = biological target: cysteines in MDA-MB-231 and Ramos cells (Homo sapiens, UniProt Q15365)
cysteines in MDA-MB-231 and Ramos cells (Homo sapiens, UniProt Q15365), sequence (Q15365 whole entry): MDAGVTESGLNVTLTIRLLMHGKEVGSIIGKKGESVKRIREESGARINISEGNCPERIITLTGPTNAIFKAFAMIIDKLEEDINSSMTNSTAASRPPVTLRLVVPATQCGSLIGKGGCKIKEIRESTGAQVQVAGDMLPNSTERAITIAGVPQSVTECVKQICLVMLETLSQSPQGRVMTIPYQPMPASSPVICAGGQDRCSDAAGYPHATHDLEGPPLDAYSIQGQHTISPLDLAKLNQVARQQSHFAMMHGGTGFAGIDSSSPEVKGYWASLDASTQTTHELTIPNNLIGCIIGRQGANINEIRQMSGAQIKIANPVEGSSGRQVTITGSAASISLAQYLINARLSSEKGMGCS

[4] = biological target: T2, cysteines in MDA-MB-231 and Ramos cells (Homo sapiens, UniProt Q99757)
T2 sequence (Q99757 60-166): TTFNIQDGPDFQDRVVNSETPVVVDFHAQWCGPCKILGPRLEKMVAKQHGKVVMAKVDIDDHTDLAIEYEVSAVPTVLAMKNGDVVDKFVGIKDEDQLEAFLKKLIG

[5] = biological target: T3, cysteines in MDA-MB-231 and Ramos cells (Homo sapiens, UniProt A6NDU8)
T3 sequence (A6NDU8 1-294): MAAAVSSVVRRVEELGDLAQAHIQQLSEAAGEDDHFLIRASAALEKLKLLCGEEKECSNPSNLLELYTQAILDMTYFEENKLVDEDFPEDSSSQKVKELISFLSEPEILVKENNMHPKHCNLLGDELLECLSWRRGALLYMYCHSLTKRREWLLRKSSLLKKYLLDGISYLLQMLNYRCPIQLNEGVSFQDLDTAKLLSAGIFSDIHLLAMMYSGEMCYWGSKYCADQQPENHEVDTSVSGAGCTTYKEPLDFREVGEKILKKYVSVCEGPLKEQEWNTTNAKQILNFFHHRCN

[6] = biological target: T4, cysteines in MDA-MB-231 and Ramos cells (Homo sapiens, UniProt Q9NYL9)
T4 sequence (Q9NYL9 1-352): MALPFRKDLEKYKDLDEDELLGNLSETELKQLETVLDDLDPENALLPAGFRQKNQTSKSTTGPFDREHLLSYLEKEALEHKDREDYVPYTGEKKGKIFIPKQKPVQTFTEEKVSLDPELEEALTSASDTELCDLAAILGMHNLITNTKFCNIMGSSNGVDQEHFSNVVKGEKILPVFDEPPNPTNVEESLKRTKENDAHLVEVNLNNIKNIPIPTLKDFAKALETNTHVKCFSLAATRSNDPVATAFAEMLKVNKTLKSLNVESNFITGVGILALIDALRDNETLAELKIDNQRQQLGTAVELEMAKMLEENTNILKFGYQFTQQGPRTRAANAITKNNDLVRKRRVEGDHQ

[7] = biological target: cysteines in MDA-MB-231 and Ramos cells (Homo sapiens, UniProt P04406)
cysteines in MDA-MB-231 and Ramos cells (Homo sapiens, UniProt P04406), sequence (P04406 whole entry): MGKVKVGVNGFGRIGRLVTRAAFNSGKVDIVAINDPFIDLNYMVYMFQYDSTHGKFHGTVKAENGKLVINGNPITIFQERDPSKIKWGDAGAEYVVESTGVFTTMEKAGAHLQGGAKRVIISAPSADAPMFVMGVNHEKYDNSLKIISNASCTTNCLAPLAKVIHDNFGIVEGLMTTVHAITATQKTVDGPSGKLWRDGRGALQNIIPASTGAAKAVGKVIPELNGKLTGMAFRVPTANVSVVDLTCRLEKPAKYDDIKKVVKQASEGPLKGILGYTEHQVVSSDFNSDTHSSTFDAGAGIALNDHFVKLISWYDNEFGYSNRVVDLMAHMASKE

[8] = biological target: cysteines in MDA-MB-231 and Ramos cells (Homo sapiens, UniProt P15121)
[9] = biological target: T5, cysteines in MDA-MB-231 and Ramos cells (Homo sapiens, UniProt Q9NRG0)
T5 sequence (Q9NRG0 1-131): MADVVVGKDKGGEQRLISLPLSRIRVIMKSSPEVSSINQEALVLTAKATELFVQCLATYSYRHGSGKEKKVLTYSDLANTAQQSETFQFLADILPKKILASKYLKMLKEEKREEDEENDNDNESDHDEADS

[10] = biological target: cysteines in MDA-MB-231 and Ramos cells (Homo sapiens, UniProt P83731)
[11] = biological target: T6, cysteines in MDA-MB-231 and Ramos cells (Homo sapiens, UniProt Q9BTA9)
T6 sequence (Q9BTA9 1-647): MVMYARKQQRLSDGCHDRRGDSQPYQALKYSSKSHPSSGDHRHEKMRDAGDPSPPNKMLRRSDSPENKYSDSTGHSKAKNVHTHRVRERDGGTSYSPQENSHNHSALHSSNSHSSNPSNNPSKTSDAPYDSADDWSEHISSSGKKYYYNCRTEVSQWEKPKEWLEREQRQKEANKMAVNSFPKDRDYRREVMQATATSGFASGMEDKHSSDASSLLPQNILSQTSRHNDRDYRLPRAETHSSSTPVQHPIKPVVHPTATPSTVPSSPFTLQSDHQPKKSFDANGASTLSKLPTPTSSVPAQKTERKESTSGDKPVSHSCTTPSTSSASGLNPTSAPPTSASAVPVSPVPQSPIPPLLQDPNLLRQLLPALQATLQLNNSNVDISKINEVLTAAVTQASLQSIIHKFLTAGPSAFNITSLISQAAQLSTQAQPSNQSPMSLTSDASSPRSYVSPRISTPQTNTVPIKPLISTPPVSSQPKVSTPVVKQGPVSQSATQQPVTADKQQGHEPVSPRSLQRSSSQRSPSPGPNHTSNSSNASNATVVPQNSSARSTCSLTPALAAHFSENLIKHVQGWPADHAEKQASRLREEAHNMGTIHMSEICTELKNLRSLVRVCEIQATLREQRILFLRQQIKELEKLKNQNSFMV

cysteines in MDA-MB-231 and Ramos cells (Homo sapiens, UniProt Q02252), sequence (Q02252 34-535): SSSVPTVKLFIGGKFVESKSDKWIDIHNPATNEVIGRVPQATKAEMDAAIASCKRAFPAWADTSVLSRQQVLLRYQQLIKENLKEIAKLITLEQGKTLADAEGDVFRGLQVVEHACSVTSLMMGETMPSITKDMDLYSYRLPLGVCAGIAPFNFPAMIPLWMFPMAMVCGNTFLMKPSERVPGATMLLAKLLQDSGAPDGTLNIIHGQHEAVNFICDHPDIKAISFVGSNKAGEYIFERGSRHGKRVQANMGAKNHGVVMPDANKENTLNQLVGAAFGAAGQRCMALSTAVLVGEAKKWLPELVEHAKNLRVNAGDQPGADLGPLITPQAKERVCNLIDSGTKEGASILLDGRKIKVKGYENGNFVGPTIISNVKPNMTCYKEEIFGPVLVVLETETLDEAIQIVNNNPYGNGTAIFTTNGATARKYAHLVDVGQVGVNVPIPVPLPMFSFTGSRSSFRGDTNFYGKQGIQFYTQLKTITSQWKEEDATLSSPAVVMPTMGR

For CC1CCc2ccccc2N1C(=O)CCl (stereo not drawn) [compound 45], the “isoTOP-ABPP ratio Q02252_C317” value [1]; 231 was 2.6, the “isoTOP-ABPP ratio Q9BRA2_C43” value [2]; 231 was 8.0 and the “isoTOP-ABPP ratio Q15365_C194” value [3]; 231 was 1.5. The “isoTOP-ABPP ratio Q99757_C90” value [4]; 231 was 6.7, the “isoTOP-ABPP ratio A6NDU8_C179” value [5]; 231 was 20.0 and the “isoTOP-ABPP ratio Q9NYL9_C132” value [6]; 231 was 0.9. For the same compound, the “isoTOP-ABPP ratio P04406_C152” value [7]; 231 was 20.0, the “isoTOP-ABPP ratio P15121_C299” value [8]; 231 was 1.0 and the “isoTOP-ABPP ratio Q9NRG0_C55” value [9]; 231 was 20.0. For the same compound, the “isoTOP-ABPP ratio P83731_C6” value [10]; 231 was 1.2 and the “isoTOP-ABPP ratio Q9BTA9_C553” value [11]; 231 was 19.1.

For COc1ccc2c(c1)CCCN2C(=O)CCl [compound 2], the “isoTOP-ABPP reactivity Q02252_C317 ALDH6A1” value [1]; 231 was 10.3, the “isoTOP-ABPP reactivity Q9BRA2_C43 TXNDC17” value [2]; 231 was 15.5 and the “isoTOP-ABPP reactivity Q15365_C194 PCBP1” value [3]; 231 was 5.1. The “isoTOP-ABPP reactivity Q99757_C90 TXN2” value [4]; 231 was 10.1, the “isoTOP-ABPP reactivity A6NDU8_C179 C5orf51” value [5]; 231 was 4.2 and the “isoTOP-ABPP reactivity Q9NYL9_C132 TMOD3” value [6]; 231 was 2.2. For the same compound, the “isoTOP-ABPP reactivity P04406_C152 GAPDH” value [7]; 231 was 20.0, the “isoTOP-ABPP reactivity P15121_C299 AKR1B1” value [8]; 231 was 0.9 and the “isoTOP-ABPP reactivity Q9NRG0_C55 CHRAC1” value [9]; 231 was 20.0. For the same compound, the “isoTOP-ABPP reactivity P83731_C6 RPL24” value [10]; 231 was 2.4 and the “isoTOP-ABPP reactivity Q9BTA9_0553 WAC” value [11]; 231 was 17.6.

With O=C(CCl)N1CCN(CC(=O)N2CCOCC2)CC1 [compound 29] the “isoTOP-ABPP ratio Q02252_C317” value ([1]; ramos) was 1.2, the “isoTOP-ABPP ratio Q9BRA2_C43” value ([2]; ramos) was 2.3 and the “isoTOP-ABPP ratio Q15365_C194” value ([3]; ramos) was 1.0. For the same compound, the “isoTOP-ABPP ratio Q99757_C90” value ([4]; ramos) was 1.6, the “isoTOP-ABPP ratio A6NDU8_C179” value ([5]; ramos) was 1.0 and the “isoTOP-ABPP ratio Q9NYL9_C132” value ([6]; ramos) was 0.9. For the same compound, the “isoTOP-ABPP ratio P04406_C152” value ([7]; ramos) was 1.2, the “isoTOP-ABPP ratio P15121_C299” value ([8]; ramos) was 1.1 and the “isoTOP-ABPP ratio Q9NRG0_C55” value ([9]; ramos) was 1.5. The “isoTOP-ABPP ratio P83731_C6” value ([10]; ramos) was 1.6 and the “isoTOP-ABPP ratio Q9BTA9_C553” value ([11]; ramos) was 1.1.
